Patent publication US10414811B2, “Protease-resistant lipidated GLP-1 analogs” (MEDIMMUNE LIMITED, priority 2015, dated 2019)
Where two headings read alike, the source gives them in different places. Numbered stars: 1 amine (or outer) side, 2 acyl side, 3 side chain; on linkers, the order of the positions; unused ones are H or OH. Square brackets hold non-standard residues; d marks the D form. Side chains are listed from the residue outwards. Peptide text beside a SMILES is read from it. * marks the point of attachment. γGlu = O=C(O)[C@H](CCC(=O)[*:2])N[*:1]; αMeF = C[C@](N)(Cc1ccccc1)C(=O)O; αMeK = C[C@](N)(CCCCN)C(=O)O; Lauroyl = CCCCCCCCCCCC(=O)*; AEEA = NCCOCCOCC(=O)O; Aib = CC(C)(N)C(=O)O

Assays:
Format in all cases: cell-based
[1] = biological target: T1, human glucose-dependent insulinotropic peptide receptor (GIPR) (Homo sapiens, UniProt P48546); test: cAMP assay, human GIPR cells
T1 construct: expressed in transfected cells
T1 sequence (P48546 22-466): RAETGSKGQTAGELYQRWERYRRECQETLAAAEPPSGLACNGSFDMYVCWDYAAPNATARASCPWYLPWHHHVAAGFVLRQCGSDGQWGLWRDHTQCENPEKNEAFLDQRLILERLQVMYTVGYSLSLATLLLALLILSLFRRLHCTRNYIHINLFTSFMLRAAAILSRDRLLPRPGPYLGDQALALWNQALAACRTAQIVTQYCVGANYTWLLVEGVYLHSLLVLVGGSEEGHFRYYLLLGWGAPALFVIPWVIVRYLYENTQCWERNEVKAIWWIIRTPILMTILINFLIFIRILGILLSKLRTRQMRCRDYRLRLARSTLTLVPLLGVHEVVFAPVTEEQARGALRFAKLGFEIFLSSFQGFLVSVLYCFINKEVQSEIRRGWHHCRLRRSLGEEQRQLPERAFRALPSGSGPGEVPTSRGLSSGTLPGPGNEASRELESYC
How it was run: (§1)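 Peptide-stimulated cAMP measured by two-step HTRF after a 30 min room-temperature incubation with receptor-expressing cells (hGLP-1R, hGIPR at 1×10^5 cells/ml; hGCGR at 2×10^5 cells/ml). Duplicate dilutions; EC50 from 4-parameter logistic fit of % Delta F.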

[2] = biological target: T2, human GLP-1 receptor (GLP-1R) (Homo sapiens, UniProt P43220); test: cAMP assay, human GLP-1R cells
T2 construct: expressed in transfected cells
T2 sequence (P43220 24-463): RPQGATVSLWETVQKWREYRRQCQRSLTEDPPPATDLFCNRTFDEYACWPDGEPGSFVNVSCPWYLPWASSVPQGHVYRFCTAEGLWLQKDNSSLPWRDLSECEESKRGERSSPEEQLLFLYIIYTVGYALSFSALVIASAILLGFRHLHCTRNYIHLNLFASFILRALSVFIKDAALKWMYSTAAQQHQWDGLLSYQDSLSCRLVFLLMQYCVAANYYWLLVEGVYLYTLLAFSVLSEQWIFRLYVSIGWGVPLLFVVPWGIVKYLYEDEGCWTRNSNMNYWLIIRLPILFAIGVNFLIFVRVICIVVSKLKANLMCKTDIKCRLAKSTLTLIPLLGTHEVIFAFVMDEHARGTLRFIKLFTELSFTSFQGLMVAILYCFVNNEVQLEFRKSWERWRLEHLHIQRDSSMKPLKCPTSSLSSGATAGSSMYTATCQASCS
How it was run: as §1

[3] = biological target: T3, human glucagon receptor (GCGR) (Homo sapiens, UniProt P47871); test: cAMP assay, human GCGR cells
T3 construct: expressed in transfected cells
T3 sequence (P47871 26-477): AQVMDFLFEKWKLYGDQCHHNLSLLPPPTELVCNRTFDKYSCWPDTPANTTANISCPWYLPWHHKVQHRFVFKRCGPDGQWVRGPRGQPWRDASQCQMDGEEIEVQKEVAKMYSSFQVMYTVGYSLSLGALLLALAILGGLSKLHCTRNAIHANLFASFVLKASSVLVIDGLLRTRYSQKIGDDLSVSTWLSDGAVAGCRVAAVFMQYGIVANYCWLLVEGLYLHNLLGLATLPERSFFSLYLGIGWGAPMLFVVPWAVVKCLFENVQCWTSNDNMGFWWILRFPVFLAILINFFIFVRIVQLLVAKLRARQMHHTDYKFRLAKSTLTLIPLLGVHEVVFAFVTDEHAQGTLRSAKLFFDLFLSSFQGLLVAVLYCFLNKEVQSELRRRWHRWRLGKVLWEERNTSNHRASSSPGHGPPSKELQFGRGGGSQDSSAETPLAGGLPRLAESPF
How it was run: as §1

GLP-1R (INS1e assay) = biological target: T4, GLP-1R (INS1e assay) (Rattus norvegicus, UniProt P32301); test: INS1e assay, cAMP activity at GLP-1R
T4 construct: endogenous in cells; host or cells: INS-1E cells
T4 sequence (P32301 22-463): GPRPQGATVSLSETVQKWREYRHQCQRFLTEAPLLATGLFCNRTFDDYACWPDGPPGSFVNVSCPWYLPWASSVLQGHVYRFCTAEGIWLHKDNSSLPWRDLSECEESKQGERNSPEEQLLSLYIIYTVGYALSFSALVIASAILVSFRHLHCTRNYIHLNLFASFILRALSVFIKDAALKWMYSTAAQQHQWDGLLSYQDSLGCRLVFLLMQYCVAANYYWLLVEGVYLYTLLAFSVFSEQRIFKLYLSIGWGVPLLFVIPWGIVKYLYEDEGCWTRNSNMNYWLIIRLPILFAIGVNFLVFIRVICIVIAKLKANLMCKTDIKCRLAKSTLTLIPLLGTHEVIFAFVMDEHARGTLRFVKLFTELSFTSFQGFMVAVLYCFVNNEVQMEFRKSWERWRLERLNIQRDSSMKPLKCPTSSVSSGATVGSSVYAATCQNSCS
How it was run: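 cAMP was quantified by two-step HTRF, using anti-cAMP cryptate donor and cAMP-d2 acceptor, each diluted 1/20 in conjugate and lysis buffer. EC50 values of the synthetic peptides were derived from the cAMP readout.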

Row | EC50 ([1]; cAMP assay, first determination (n1), read-out: Primary assay EC50 GIP-R (n1)) [pM] | EC50 ([1]; cAMP assay, second determination (n2), read-out: Primary assay EC50 GIP-R (n2)) [pM] | EC50 ([2]; cAMP assay, first determination (n1), read-out: Primary assay EC50 GLP-1R n1) [pM] | EC50 ([2]; cAMP assay, second determination (n2), read-out: Primary assay EC50 GLP-1R n2) [pM] | EC50 ([2]; mean of n1 and n2, read-out: Mean pM GLP-1R) [pM] | EC50 ([3]; cAMP assay, first determination (n1), read-out: Primary assay EC50 Gluc-R (n1)) [pM] | EC50 ([3]; cAMP assay, second determination (n2), read-out: Primary assay EC50 Gluc-R (n2)) [pM] | EC50 (GLP-1R (INS1e assay); mono-lipidated peptides, mean of n1 and n2, read-out: INS1e assay EC50 Mean pM GLP-1R) [pM] | EC50 (GLP-1R (INS1e assay); mono-lipidated peptides, replicate n1, read-out: INS1e assay EC50 GLP-1R n1) [pM] | EC50 (GLP-1R (INS1e assay); mono-lipidated peptides, replicate n2, read-out: INS1e assay EC50 GLP-1R n2) [pM] | EC50 ([1]; tris-lipidated peptides, second replicate, read-out: Primary assay EC50 GIP-R (n2)) [pM] | EC50 ([2]; tris-lipidated peptides, mean of n1 and n2, read-out: Primary assay EC50 Mean pM GLP-1R) [pM] | EC50 ([2]; tris-lipidated peptides, replicate n1, read-out: Primary assay EC50 GLP-1R n1) [pM] | EC50 ([2]; tris-lipidated peptides, replicate n2, read-out: Primary assay EC50 GLP-1R n2) [pM] | EC50 ([3]; tris-lipidated peptides, first replicate, read-out: Primary assay EC50 Gluc-R (n1)) [pM] | EC50 (GLP-1R (INS1e assay); tris-lipidated peptides, mean of n1 and n2, read-out: INS1e assay EC50 Mean pM GLP-1R) [pM] | EC50 (GLP-1R (INS1e assay); tris-lipidated peptides, replicate n1, read-out: INS1e assay EC50 GLP-1R n1) [pM] | EC50 (GLP-1R (INS1e assay); tris-lipidated peptides, replicate n2, read-out: INS1e assay EC50 GLP-1R n2) [pM] | SMILES
1 | ≥ 27000 | ≥ 27000 | 7.9 | 5 | 6.4 | ≥ 27000 | ≥ 27000 | 58 | 55 | 61.2 | – | – | – | – | – | – | – | – | CCCCCCCCCCCCCCCCCC(=O)NCCOCCOCC(=O)NCCOCCOCC(=O)NCCCC[C@H](NC(=O)[C@H](C)NC(=O)[C@H](C)NC(=O)[C@H](CCC(=O)O)NC(=O)CNC(=O)[C@H](CCC(=O)O)NC(=O)[C@H](CC(C)C)NC(=O)[C@](C)(Cc1ccccc1)NC(=O)[C@H](CO)NC(=O)[C@](C)(CO)NC(=O)[C@@H](NC(=O)[C@H](CC(=O)O)NC(=O)[C@H](CO)NC(=O)[C@@H](NC(=O)[C@](C)(Cc1ccccc1)NC(=O)[C@H](CO)NC(=O)CNC(=O)[C@H](CCC(=O)O)NC(=O)C(C)(C)NC(=O)[C@@H](N)Cc1c[nH]cn1)[C@@H](C)O)C(C)C)C(=O)N[C@@H](CCC(=O)O)C(=O)N[C@@](C)(Cc1ccccc1)C(=O)N[C@H](C(=O)N[C@@H](C)C(=O)N[C@@](C)(Cc1ccccc1)C(=O)N[C@H](C(=O)N[C@H](C(=O)N[C@@](C)(CCCCN)C(=O)NCC(=O)NCC(N)=O)C(C)C)C(C)C)[C@@H](C)CC [compound 153]
2 | – | – | – | – | – | – | – | – | – | – | 19800 | 87.4 | 54.8 | 120 | 19800 | 4910 | 6740 | 3080 | CCCCCCCCCCCC(=O)N[C@@H](CCC(=O)NCCOCCOCC(=O)NCCOCCOCC(=O)NCCCC[C@H](NC(=O)[C@H](C)NC(=O)[C@@H](NC(=O)[C@H](Cc1ccccc1)NC(=O)[C@H](CCC(=O)O)NC(=O)[C@](C)(CCCCN)NC(=O)[C@H](C)NC(=O)[C@H](C)NC(=O)[C@H](CCC(=O)O)NC(=O)[C@H](CCCCNC(=O)COCCOCCNC(=O)COCCOCCNC(=O)CC[C@H](NC(=O)CCCCCCCCCCC)C(=O)O)NC(=O)[C@H](CCC(=O)O)NC(=O)[C@H](CC(C)C)NC(=O)[C@H](Cc1ccc(O)cc1)NC(=O)[C@H](CO)NC(=O)[C@H](CO)NC(=O)[C@H](CCCCNC(=O)COCCOCCNC(=O)COCCOCCNC(=O)CC[C@H](NC(=O)CCCCCCCCCCC)C(=O)O)NC(=O)[C@H](CC(=O)O)NC(=O)[C@H](CO)NC(=O)[C@@H](NC(=O)[C@](C)(Cc1ccccc1)NC(=O)[C@H](CO)NC(=O)CNC(=O)[C@H](CCC(=O)O)NC(=O)C(C)(C)NC(=O)[C@@H](N)Cc1c[nH]cn1)[C@@H](C)O)[C@@H](C)CC)C(=O)N[C@H](C(=O)N[C@H](C(=O)N[C@@H](CCC(=O)O)C(=O)NCC(=O)NCC(N)=O)C(C)C)C(C)C)C(=O)O [compound 455] (H-H[Aib]EGS[αMeF]TSDK([AEEA-AEEA-γGlu-Lauroyl])SSYLEK([AEEA-AEEA-γGlu-Lauroyl])EAA[αMeK]EFIAK([AEEA-AEEA-γGlu-Lauroyl])VVEGG-NH2)
